Measured values reported in paper PMC12808100, “The non-catalytic DNA polymerase ε subunit is an NPF motif recognition protein” (Nature Communications, 2025).

Target: His6-avi-MBP-tagged POLE2
Assay: Single-point nHU-MS with recombinant His6-avi-MBP-POLE2 bait, Jurkat extract
Type: binding, human
Settings: significant apparent affinity of endogenous prey protein for POLE2 bait; single-point nHU-MS; Figure S11
Excerpt: So far, our study only focused on a few hand-picked NPF motifs and studied them as short synthetic peptides. However, many other proteins may be present in the proteome that could bind to POLE2 and their putative NPF motifs are embedded in their natural structures that can greatly affect their binding properties. To investigate interactions between POLE2 and intact, full length proteins proteome-wide, we used nHU-MS experiments with recombinant His6-avi-MBP-tagged POLE2 as bait and purified His6-avi-MBP as a control. Even though we are aware that this recombinant POLE2 may bind to NPF motifs with a somewhat altered affinity, we assumed that this would affect all NPF motif-mediated interactions equally, allowing an unbiased affinity ranking of all identified partners. Single point nHU measurements were performed at 26 μM POLE2 concentration and the recovered supernatant was measured by label free proteomic MS measurements (Fig. 3A, Supplementary Figs. 8A, 9, Supplementary Data 1).
Single-point nHU experiments with protein baits were carried out nearly identically with two key modifications. First, the resin saturation step was carried out by mixing 50 μl streptavidin resin with 0.5−1 ml 50 μM biotinylated protein solution and the mixture was incubated for 1.5 h at 4 °C with constant agitation. Second, instead of using estimated bait concentrations, we measured it experimentally. An extra aliquot of resin stock was prepared alongside the nHU samples that were identically processed that were used to eluate the immobilized proteins under harsh conditions, in order to experimentally quantify the Cbait by using densitometry of Coomassie stained SDS-PAGE that included a protein calibration series. For this, 50 μl bait-saturated resin aliquots were mixed with 200 μl 4x Laemmli Sample Buffer (120 mM Tris-HCl pH 7, 8% SDS, 100 mM DTT, 32% glycerol, 0.004% bromphenol blue, 1% β-mercaptoethanol), instead of cell extract. After 15 min incubation at 95 °C, these samples were analyzed by SDS-PAGE using protein calibration standard, made from recombinant MBP. Densitometry was carried out after Coomassie staining on raw Tif images by using Fiji ImageJ 1.53c and experimental bait concentration were determined by adjusting for molecular weight differences between MBP and MBP-POLE2 constructs.
Samples were digested overnight at 37 °C.

**Q.** With “TSSTPE [AGFG1, endogenous full length prey protein]” as the substance, how does the pKapp_sign read?
**A.** Its pKapp_sign is 4.872.

**Q.** KSVD [MYCBP2] was tested. Which pKapp_sign did it give?
**A.** Its pKapp_sign is 4.444.

**Q.** Which pKapp_sign does the source give for NSVD [GYS1] here?
**A.** Its pKapp_sign is 4.403.

**Q.** “HARISSTSHT [TRIP11, endogenous full length prey protein]” was tested. Which pKapp_sign did it give?
**A.** Its pKapp_sign is 4.056.
